The structures appear in SMILES notation.

A short description of one data set: method code SF-AS, from DOI: 10.1002/jps.2600790712, PMID: 2398468.
As to `C[C@H](CCCNCc1ccccc1)[C@H]1CC[C@H]2[C@@H]3CC[C@@H]4C[C@H](O)CC[C@]4(C)[C@H]3C[C@H](O)[C@]12C`, the logP came to 4.8. Still for that read-out and setting: under `C[C@H](CCCNCc1ccccc1)[C@H]1CC[C@H]2[C@@H]3[C@H](O)C[C@@H]4C[C@H](O)CC[C@]4(C)[C@H]3C[C@H](O)[C@]12C` stands 3.82; under `C[C@H](CCCN)[C@H]1CC[C@H]2[C@@H]3[C@@H](O)C[C@@H]4C[C@H](O)CC[C@]4(C)[C@H]3CC[C@]12C`, 4; under `C[C@H](CCCNCc1cccc(Cl)c1)[C@H]1CC[C@H]2[C@@H]3CC[C@@H]4C[C@H](O)CC[C@]4(C)[C@H]3CC[C@]12C`, 4.95.

The compound `C[C@H](CCCNCc1ccccc1)[C@H]1CC[C@H]2[C@@H]3[C@H](O)C[C@@H]4C[C@H](O)CC[C@]4(C)[C@H]3CC[C@]12C` returned a lipophilicity (logP) of 4.2.

Turning to `C[C@H](CCCNCc1ccccc1Cl)[C@H]1CC[C@H]2[C@@H]3CC[C@@H]4C[C@H](O)CC[C@]4(C)[C@H]3CC[C@]12C`, the lipophilicity (logP) is 5.05.

Compound `C[C@H](CCCNCc1ccc(Cl)cc1)[C@H]1CC[C@H]2[C@@H]3CC[C@@H]4C[C@H](O)CC[C@]4(C)[C@H]3CC[C@]12C` returned a log partition coefficient (logP) of 5.

For `C[C@H](CCC(=O)NCc1ccccc1)[C@H]1CC[C@H]2[C@@H]3[C@H](O)C[C@@H]4C[C@H](O)CC[C@]4(C)[C@H]3C[C@H](O)[C@]12C`, the logP was determined as 3.54. Turning to `C[C@H](CCCNCc1ccccc1)[C@H]1CC[C@H]2[C@@H]3CC[C@@H]4C[C@H](O)CC[C@]4(C)[C@H]3CC[C@]12C`, the logP is 4.9.

Another data set can be described thus: method code SF, from DOI: 10.1002/jps.2600790712, PMID: 2398468.
As to `C[C@H](CCCNCc1ccccc1)[C@H]1CC[C@H]2[C@@H]3C[C@H](O)[C@@H]4C[C@H](O)CC[C@]4(C)[C@H]3CC[C@]12C`, the logP came to 4.15.

As usually defined, the logP is the decadic logarithm of the partition coefficient of the neutral form, usually between octanol and water. Read a high logP as higher lipophilicity.

(Values after the SangsterLogP compilation.)
